PMC11233931, “Remodeling tumor‐associated macrophage for anti‐cancer effects by rational design of irreversible inhibition of mitogen‐activated protein kinase‐activated protein kinase 2” (MedComm, 2024)

Key:
Test in all cases: Eurofins kinase selectivity profile against 380 other human recombinant kinases (Table S2)
Type in all cases: biochemical
[1] = target: T1, 380 human recombinant protein kinases (Homo sapiens, UniProt Q9NRM7); settings: LATS2(h), read-out: Inhibition rate
T1 construct: purchased Eurofins (Celle Lévescault)
T1 sequence (Q9NRM7 1-1088): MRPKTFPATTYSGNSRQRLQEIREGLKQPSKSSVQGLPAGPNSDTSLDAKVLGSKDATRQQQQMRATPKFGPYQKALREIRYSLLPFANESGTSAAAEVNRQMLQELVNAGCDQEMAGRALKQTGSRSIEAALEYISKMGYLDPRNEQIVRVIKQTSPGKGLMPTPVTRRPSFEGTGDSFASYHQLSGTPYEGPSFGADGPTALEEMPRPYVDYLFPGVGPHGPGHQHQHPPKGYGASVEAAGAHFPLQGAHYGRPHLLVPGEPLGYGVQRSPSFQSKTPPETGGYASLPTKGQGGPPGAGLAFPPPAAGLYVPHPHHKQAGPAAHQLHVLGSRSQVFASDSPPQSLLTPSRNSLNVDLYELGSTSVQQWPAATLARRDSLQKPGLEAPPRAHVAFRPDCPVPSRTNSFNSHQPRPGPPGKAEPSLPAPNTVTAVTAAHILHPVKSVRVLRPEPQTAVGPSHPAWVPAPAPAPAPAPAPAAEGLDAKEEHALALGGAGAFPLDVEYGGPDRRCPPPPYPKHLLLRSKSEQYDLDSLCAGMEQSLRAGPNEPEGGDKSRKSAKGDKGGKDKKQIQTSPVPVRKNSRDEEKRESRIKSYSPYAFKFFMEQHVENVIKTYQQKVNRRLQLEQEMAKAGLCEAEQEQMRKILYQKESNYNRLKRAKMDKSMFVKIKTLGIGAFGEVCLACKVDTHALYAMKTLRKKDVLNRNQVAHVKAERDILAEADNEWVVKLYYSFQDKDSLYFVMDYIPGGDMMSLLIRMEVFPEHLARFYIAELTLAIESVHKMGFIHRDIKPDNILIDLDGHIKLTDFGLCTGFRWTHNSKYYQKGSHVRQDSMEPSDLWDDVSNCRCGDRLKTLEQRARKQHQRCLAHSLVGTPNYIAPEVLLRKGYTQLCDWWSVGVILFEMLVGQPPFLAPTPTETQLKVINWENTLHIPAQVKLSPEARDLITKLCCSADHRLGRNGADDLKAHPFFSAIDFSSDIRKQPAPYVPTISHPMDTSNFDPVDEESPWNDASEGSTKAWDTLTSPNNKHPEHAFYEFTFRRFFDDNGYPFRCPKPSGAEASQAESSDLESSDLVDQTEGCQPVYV
Summary of the method: (§1)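 Commercial selectivity screen of the test compound against a panel of 380 human recombinant protein kinases, run by an outside contractor at several compound concentrations to check whether its potency was specific for MK2.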

[2] = target: T2, 380 human recombinant protein kinases (Homo sapiens, UniProt O94806); settings: PKD3(h), read-out: Inhibition rate
T2 construct: purchased Eurofins (Celle Lévescault)
T2 sequence (O94806 1-890): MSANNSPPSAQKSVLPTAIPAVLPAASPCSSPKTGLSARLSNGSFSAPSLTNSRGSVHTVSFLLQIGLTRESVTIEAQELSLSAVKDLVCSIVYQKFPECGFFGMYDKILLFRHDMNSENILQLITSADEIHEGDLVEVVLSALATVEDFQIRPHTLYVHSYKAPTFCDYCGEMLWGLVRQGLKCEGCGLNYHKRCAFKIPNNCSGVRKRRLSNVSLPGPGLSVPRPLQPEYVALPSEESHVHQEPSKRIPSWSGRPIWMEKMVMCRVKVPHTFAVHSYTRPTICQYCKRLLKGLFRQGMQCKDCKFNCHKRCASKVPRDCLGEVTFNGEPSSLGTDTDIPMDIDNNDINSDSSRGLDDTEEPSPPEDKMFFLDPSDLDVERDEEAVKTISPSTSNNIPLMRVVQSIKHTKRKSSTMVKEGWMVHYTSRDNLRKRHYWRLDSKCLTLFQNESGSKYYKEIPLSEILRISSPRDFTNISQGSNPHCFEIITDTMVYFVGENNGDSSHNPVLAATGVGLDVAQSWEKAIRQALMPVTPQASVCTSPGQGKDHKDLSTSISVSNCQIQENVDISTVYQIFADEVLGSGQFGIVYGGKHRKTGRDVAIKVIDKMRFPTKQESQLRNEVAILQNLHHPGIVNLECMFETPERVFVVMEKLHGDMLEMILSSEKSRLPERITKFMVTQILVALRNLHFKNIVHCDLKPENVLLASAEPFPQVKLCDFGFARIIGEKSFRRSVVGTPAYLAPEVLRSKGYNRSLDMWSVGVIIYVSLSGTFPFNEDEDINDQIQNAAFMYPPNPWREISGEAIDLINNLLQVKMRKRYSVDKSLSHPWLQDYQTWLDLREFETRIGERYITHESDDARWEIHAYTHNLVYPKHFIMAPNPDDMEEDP
Summary of the method: as §1

[3] = target: T3, 380 human recombinant protein kinases (Homo sapiens, UniProt Q16513); settings: PRK2(h), read-out: Inhibition rate
T3 construct: purchased Eurofins (Celle Lévescault)
Summary of the method: as §1

[4] = target: T4, 380 human recombinant protein kinases (Homo sapiens, UniProt Q9Y3S1); settings: WNK2(h), read-out: Inhibition rate (%)
T4 construct: purchased Eurofins (Celle Lévescault)
Summary of the method: as §1

[5] = target: T5, 380 human recombinant protein kinases (Homo sapiens, UniProt P42338); settings: PI3 Kinase (p110β/p85α)(h), read-out: Inhibition rate (%)
T5 construct: purchased Eurofins (Celle Lévescault)
Summary of the method: as §1

T3 sequence (Q16513 whole entry): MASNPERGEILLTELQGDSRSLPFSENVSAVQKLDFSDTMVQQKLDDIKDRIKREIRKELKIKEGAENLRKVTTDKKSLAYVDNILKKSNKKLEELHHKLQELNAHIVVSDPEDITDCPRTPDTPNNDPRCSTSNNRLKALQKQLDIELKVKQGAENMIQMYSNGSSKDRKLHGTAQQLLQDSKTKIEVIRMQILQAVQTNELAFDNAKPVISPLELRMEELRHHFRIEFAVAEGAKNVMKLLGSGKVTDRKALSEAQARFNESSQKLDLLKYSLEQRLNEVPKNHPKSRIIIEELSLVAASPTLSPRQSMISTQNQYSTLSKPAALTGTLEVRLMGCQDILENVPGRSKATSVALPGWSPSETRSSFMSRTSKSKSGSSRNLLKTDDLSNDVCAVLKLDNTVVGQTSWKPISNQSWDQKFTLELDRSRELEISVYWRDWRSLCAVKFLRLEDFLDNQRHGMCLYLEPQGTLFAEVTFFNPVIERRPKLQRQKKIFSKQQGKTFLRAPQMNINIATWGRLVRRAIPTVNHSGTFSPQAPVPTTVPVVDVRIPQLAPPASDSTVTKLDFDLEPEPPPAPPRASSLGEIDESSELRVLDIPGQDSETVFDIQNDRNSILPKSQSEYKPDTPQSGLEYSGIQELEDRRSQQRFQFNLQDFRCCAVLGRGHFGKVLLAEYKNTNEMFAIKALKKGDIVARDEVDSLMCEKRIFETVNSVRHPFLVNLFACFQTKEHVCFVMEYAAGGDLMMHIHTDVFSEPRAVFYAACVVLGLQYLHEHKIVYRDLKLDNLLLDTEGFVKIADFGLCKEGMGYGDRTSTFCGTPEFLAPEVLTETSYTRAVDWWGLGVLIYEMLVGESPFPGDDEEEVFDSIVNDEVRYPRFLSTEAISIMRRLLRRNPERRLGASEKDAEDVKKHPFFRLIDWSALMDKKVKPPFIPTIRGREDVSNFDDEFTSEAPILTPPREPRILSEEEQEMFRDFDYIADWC
T5 sequence (P42338 whole entry): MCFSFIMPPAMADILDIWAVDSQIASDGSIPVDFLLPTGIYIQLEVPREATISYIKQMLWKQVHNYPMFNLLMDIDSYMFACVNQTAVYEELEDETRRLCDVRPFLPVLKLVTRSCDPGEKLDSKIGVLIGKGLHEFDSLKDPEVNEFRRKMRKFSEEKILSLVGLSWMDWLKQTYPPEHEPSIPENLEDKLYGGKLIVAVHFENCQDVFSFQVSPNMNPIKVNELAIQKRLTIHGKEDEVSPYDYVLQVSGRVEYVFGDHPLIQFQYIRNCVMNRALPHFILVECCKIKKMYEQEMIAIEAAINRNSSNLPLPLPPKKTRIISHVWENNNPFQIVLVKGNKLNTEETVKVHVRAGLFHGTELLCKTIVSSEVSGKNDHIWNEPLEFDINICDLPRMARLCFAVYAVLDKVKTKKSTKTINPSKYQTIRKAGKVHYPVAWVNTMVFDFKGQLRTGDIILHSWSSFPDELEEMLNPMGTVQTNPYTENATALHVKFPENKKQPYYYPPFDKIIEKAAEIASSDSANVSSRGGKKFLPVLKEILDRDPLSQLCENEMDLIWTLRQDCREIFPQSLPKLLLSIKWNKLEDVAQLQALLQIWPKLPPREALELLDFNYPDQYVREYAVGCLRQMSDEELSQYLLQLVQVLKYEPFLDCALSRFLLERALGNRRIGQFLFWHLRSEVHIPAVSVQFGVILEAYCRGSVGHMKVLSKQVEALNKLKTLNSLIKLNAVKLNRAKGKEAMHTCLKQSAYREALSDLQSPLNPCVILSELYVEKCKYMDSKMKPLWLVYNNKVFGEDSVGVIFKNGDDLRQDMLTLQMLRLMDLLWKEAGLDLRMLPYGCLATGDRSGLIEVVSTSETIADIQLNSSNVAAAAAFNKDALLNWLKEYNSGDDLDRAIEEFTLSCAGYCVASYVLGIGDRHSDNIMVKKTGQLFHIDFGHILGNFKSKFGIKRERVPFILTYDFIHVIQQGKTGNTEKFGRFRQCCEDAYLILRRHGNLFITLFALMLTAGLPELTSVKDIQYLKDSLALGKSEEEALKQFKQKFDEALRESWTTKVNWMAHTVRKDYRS
T4 sequence (Q9Y3S1 whole entry): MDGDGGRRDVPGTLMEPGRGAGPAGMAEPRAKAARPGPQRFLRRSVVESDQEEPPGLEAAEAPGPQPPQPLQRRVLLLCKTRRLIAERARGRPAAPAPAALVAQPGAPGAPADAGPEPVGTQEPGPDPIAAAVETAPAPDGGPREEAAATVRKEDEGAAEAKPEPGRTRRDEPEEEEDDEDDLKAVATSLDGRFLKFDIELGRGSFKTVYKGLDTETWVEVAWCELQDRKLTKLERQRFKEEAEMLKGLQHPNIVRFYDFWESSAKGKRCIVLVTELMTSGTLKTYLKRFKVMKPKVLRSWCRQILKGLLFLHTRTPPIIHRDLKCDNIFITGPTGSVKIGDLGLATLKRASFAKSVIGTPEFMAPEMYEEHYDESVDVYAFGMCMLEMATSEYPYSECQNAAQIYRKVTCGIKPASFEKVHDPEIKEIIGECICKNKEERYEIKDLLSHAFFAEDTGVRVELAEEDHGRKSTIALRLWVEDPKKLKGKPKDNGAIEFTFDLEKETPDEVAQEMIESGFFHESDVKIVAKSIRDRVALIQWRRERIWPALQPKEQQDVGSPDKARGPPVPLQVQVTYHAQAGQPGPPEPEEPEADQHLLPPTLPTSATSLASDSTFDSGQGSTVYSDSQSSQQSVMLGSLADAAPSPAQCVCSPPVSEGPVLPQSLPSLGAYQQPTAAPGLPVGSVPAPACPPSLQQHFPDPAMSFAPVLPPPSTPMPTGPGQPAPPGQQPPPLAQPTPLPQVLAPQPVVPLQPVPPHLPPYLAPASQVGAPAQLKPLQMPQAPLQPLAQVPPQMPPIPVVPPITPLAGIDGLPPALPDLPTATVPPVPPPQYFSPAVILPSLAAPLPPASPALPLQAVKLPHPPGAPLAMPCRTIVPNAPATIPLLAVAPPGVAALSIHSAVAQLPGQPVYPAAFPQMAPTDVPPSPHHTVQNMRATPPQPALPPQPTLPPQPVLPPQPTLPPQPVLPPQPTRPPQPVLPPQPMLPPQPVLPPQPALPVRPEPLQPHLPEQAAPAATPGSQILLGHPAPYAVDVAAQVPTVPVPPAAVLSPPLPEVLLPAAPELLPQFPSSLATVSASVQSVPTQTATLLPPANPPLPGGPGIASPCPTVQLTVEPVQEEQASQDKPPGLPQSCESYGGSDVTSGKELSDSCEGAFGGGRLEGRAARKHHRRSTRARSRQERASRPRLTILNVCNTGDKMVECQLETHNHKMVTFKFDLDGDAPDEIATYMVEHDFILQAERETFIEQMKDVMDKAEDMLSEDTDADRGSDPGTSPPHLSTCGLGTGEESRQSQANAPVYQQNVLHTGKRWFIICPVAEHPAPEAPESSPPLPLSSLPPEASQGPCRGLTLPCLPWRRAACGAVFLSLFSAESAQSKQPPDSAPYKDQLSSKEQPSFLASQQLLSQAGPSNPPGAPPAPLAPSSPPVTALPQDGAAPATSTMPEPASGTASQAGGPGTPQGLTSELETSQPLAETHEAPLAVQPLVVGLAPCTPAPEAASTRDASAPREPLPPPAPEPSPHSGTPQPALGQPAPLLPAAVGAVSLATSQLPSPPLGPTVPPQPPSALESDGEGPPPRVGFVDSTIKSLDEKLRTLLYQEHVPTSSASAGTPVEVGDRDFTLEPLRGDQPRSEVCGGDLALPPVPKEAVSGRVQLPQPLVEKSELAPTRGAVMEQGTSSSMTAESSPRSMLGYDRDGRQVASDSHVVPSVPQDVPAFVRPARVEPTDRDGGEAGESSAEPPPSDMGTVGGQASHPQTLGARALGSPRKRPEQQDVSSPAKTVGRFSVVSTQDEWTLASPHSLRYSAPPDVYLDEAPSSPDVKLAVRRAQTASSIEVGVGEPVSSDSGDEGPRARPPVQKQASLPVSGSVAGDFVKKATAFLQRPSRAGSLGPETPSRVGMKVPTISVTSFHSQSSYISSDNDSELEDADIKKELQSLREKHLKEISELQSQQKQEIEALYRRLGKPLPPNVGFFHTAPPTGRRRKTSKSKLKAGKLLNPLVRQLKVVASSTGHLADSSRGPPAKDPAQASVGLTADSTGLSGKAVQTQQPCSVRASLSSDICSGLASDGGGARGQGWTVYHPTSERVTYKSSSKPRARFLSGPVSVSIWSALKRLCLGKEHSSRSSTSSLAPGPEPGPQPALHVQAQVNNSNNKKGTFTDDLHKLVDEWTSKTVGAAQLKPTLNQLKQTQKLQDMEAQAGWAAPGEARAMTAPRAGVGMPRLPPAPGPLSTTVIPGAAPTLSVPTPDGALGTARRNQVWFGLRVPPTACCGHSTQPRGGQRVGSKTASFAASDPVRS

C=CC(=O)Nc1cc(-c2cc(-c3cc4c([nH]3)CCNC4=O)ccn2)ccc1OC(F)(F)F [compound 11]
inhibition at 0.01 µM ([1]; 10 nM): 1% | inhibition at 0.1 µM ([1]; 100 nM): 8% | inhibition at 1 µM ([1]; 1000 nM): 4% | inhibition at 0.01 µM ([2]; 10 nM): 4% | inhibition at 0.1 µM ([2]; 100 nM): 15% | inhibition at 1 µM ([2]; 1000 nM): 55% | inhibition at 0.01 µM ([3]; 10 nM): -2% | inhibition at 0.1 µM ([3]; 100 nM): 3% | inhibition at 1 µM ([3]; 1000 nM): 5% | inhibition at 0.01 µM ([4]; 10 nM): 11% | inhibition at 0.1 µM ([4]; 100 nM): 19% | inhibition at 1 µM ([4]; 1000 nM): 17% | inhibition at 0.01 µM ([5]; 10 nM): -1% | inhibition at 0.1 µM ([5]; 100 nM): -1% | inhibition at 1 µM ([5]; 1000 nM): -1%
